SMILES strings stand for the structures. Where two headings read alike, the source gives them in different places.

Data on three compounds can be found in patent publication US20080095778A1, “Treatment Of Fungal Infections” (priority 2004, published 2008).

In one assay the test system is A. niger. Briefly: Broth microdilution (NCCLS M38-A) checkerboard assay, A. niger. It counts as cell-based. Particulars: for MIC: Aspergillus niger, agent alone, read-out: MIC-2 of each agent, Alone. On the procedure: (§1) Stock solutions of amphotericin B (AMB, Sigma), caspofungin (Caspo), voriconazole (VOR) and itraconazole (ITZ) were prepared according to the National Committee for Clinical Laboratory Standards (M38-A) in RPMI 1640 with glutamine broth medium, buffered to pH 7.0 with […] morpholinopropanesulphonic acid (MOPS). AMB stock solutions were prepared as a 100× series in 100% dimethyl sulfoxide (DMSO) and diluted in medium to a concentration range of 0.03125 to 16 μg/ml. Caspofungin, voriconazole and itraconazole were tested at a concentration range of 0.03125 to 1024 μg/ml, and Mycograb® (NeuTec Pharma plc) at a concentration range of 0.25 to 1024 μg/ml.
(§2) Clinical isolates of Aspergillus fumigatus (2), A. flavus (1), A. terreus (1) and A. niger (1) were obtained from the Department on Microbiology, Manchester Royal Infirmary, Manchester, UK.
(§3) An inoculum suspension was prepared in buffered RPMI with glutamine medium by probing colonies from a 7 day old Sabouraud plate. The suspension was adjusted to 0.09-0.11 (80% to 82% transmittance) for Aspergillus species, 0.15-0.17 (68% to 70% transmittance). The inoculum was diluted a further 1:2 when added to the antifungal agents in the assay (final inoculum (0.4×10^4 to 0.5×10^4). For AMB and Mycograb®, either alone or in combination, the endpoint was determined as the concentration to produce no growth (MIC-0). Microtitre plates were incubated at 37° C. without agitation for 48 hours for Aspergillus species. For caspofungin, voriconazole and itraconazole, either alone or in combination with Mycograb® antibody, the MIC endpoint was determined as the concentration resulting in a prominent decrease in turbidity (≧50% growth inhibition, MIC-2) compared to the growth control (Keele et al. 2001; Espinel-Ingroff 2003). The final inhibitory concentration (FIC) was calculated for each drug by dividing the MIC in the presence of the second drug by the MIC in its absence. For each combination, two fractions were produced which were summated to produce the fractional final inhibitory concentration. Synergy was defined by value of ≦0.5, indifference was defined by a value of >0.5 to <4.0, and antagonism was defined by a value of ≧4.0 (Matthews et al., 2003).

Another assay has as its system A. terreus. Briefly: Broth microdilution (NCCLS M38-A) checkerboard assay, A. terreus. The class given is cell-based. The conditions noted are these: for MIC: Aspergillus terreus, agent alone, read-out: MIC-2 of each agent, Alone; for FIC: MIC in combination divided by MIC alone. The procedure: as §1, §2, §3
In general terms: Dilution methods test growth across graded concentrations, often in twofold steps.

Another assay has as its system A. fumigatus CI2. Briefly: Broth microdilution (NCCLS M38-A) checkerboard assay, A. fumigatus CI2. The conditions noted are these: for MIC: Aspergillus fumigatus, agent alone, read-out: MIC-2 of each agent, Alone. The class given is cell-based, Aspergillus fumigatus. The procedure:
as §1, §2, §3

A further assay relates to A. flavus. As to the kind of experiment: Broth microdilution (NCCLS M38-A) checkerboard assay, A. flavus. The conditions noted are these: for MIC: Aspergillus flavus, agent alone, read-out: MIC-2 of each agent, Alone. The class given is cell-based. On the procedure: as §1, §2, §3
In another assay the test system is A. fumigatus. Briefly: Broth microdilution (NCCLS M38-A) checkerboard assay, A. fumigatus. The conditions noted are these: for MIC: Aspergillus fumigatus, agent alone, read-out: MIC-2 of each agent, Alone. The class given is cell-based, Aspergillus fumigatus. The procedure: as §1, §2, §3
In another assay the test system is Aspergillus species. Briefly: Antifungal activity with Mycograb antibody, summary over the Aspergillus species examined. It counts as cell-based. The procedure: as §3
Setting [1] is: Table 3, ≧50% growth inhibition endpoint.
[2] abbreviates: itraconazole and Mycograb combination.
[3] abbreviates: itraconazole and Mycograb in combination.
Setting [4] is: Table 2, ≧50% growth inhibition endpoint.
[5] abbreviates: caspofungin and Mycograb combination.
The mark [6] stands for this setting: caspofungin and Mycograb in combination.

Take `CCC(C)n1ncn(-c2ccc(N3CCN(c4ccc(OCC5COC(Cn6cncn6)(c6ccc(Cl)cc6Cl)O5)cc4)CC3)cc2)c1=O` (centres unmarked) [ITZ, itraconazole]: the minimal inhibitory concentration (MIC) (as a rule, the least concentration at which growth counts as inhibited) amounted to 0.125 µg/mL in the assay on A. niger (setting [1]); 0.125 µg/mL in the assay with A. terreus (setting [1]); 0.5 µg/mL in the assay with A. fumigatus CI2 (setting [1]); 0.125 µg/mL in the assay with A. flavus (setting [1]); 0.5 µg/mL in the assay on A. fumigatus (setting [1]). In addition, the FICI with A. niger (setting [2]) was 0.375; with A. terreus (setting [2]), 0.281; in the assay on A. fumigatus CI2 (setting [2]), 0.2578; in the assay with A. flavus (setting [2]), 0.25; in the assay on A. fumigatus (setting [2]) it was 0.0781. Also, the Outcome result in the assay with A. niger (setting [2]), in the assay with A. terreus (setting [2]), with A. fumigatus CI2 (setting [2]), in the assay on A. flavus (setting [2]) and in the assay with A. fumigatus (setting [2]) was “Synergy (Synergy was defined by value of ≦0.5)” in each case. The “MIC-2 of each agent, Combination” value in the assay on A. niger (setting [3]) amounted to 0.0156 µg/mL; in the assay with A. terreus (setting [3]) it was 0.0312 µg/mL; in the assay on A. fumigatus CI2 (setting [3]), 0.125 µg/mL; in the assay on A. flavus (setting [3]), 0.0312 µg/mL; with A. fumigatus (setting [3]), 0.0312 µg/mL. Moreover, in the assay with A. terreus (itraconazole and Mycograb), the FIC turned out to be 0.25 µg/mL.

Consider `CC[C@@H]([C@H](C)O)n1ncn(-c2ccc(N3CCN(c4ccc(OC[C@@H]5CO[C@@](Cn6cncn6)(c6ccc(F)cc6F)C5)cc4)CC3)cc2)c1=O` [posaconazole], for which the “Synergy with antibody specific for Aspergillus hsp90 epitope” value in the assay with Aspergillus species (preliminary results) is listed as “capable of achieving similar synergistic results”.

With `CC[C@H](C)C[C@H](C)CCCCCCCCC(=O)N[C@H]1C[C@@H](O)[C@@H](NCCN)NC(=O)[C@@H]2[C@@H](O)CCN2C(=O)[C@H]([C@H](O)CCN)NC(=O)[C@H]([C@H](O)[C@@H](O)c2ccc(O)cc2)NC(=O)[C@@H]2C[C@@H](O)CN2C(=O)[C@H]([C@@H](C)O)NC1=O` [Caspo, caspofungin], the minimal inhibitory concentration (MIC) was found to be 1 µg/mL with A. niger (setting [4]); 0.312 µg/mL in the assay on A. terreus (setting [4]); 0.125 µg/mL in the assay on A. fumigatus CI2 (setting [4]); 1 µg/mL in the assay on A. flavus (setting [4]); 0.125 µg/mL in the assay with A. fumigatus (setting [4]). The FICI with A. niger (setting [5]) is 0.125; with A. terreus (setting [5]) it was 0.312; in the assay with A. fumigatus CI2 (setting [5]), 0.562; in the assay with A. flavus (setting [5]), 0.500; in the assay on A. fumigatus (setting [5]), 0.562. In addition, the Outcome entry in the assay on A. niger (setting [5]) is “Synergy (Synergy was defined by value of ≦0.5)”; in the assay with A. terreus (setting [5]), “Synergy (Synergy was defined by value of ≦0.5)”; in the assay on A. fumigatus CI2 (setting [5]), “Indifferent (indifference was defined by a value of >0.5 to <4.0)”; in the assay with A. flavus (setting [5]), “Indifferent (indifference was defined by a value of >0.5 to <4.0)”; in the assay on A. fumigatus (setting [5]) it was “Indifferent (indifference was defined by a value of >0.5 to <4.0)”. For the same compound, the “MIC-2 of each agent, Combination” value stood at 0.125 µg/mL in the assay on A. niger (setting [6]); 0.078 µg/mL in the assay with A. terreus (setting [6]); 0.0625 µg/mL in the assay on A. fumigatus CI2 (setting [6]); 0.5 µg/mL in the assay with A. flavus (setting [6]); 0.0625 µg/mL with A. fumigatus (setting [6]). Also, the “Antifungal activity / surprising effect when used in combination with Mycograb antibody” value with Aspergillus species (summary of Tables 1-4, agent combined with Mycograb antibody) is on record as “not observed”. In addition, in the assay with A. terreus (caspofungin and Mycograb), the FIC was 0.25 µg/mL.
